Consider 1 substance from patent publication US5177059A, “Polymyxin B conjugates” (Sandoz Ltd., priority 1990, dated 1993).

Holding throughout (type): in vivo
For one data set, the system named is non-sensitized mice. The data set is described as follows: PMB (native and conjugated forms) induced lethality, i.p. Particulars: i.p. injection, lethality monitored for 7 days. On the procedure: B. PMB (native and conjugated forms) induced lethality
PMB (native and conjugated forms) are evaluated for their inherent toxicity in non-sensitized mice. Male CB57BL/c mice (18-22 g, Jackson Labs) are used throughout this study. Animals are given either native PMB or conjugated PMB by intraperitoneal injection (0.5 ml/animal) and lethality monitored for 7 days. The LD100 is determined by varying the dose of PMB (native and conjugated forms) that result in 100% lethality. From 10-20 animals are used for each dose.

A further data set concerns endotoxin (0111B4). The data set is described as follows: PMB anti-endotoxin evaluations: protection from endotoxin-induced lethality in galactosamine-hypersensitized mice. On the procedure: A. Endotoxin-induced lethality
Male CB57BL/c mice (18-22 g, Jackson Labs) are used throughout this study. Animals are given endotoxin (0111B4 from List Biologicals, Palo Alto, Calif.) and galactosamine to hypersensitize, as described in Galanos et al., 1979. Proc. Natl. Acad. Sci. USA 76: 5939. The endotoxin and galactosamine (320 mg/kg) are injected intraperitoneally in 0.5 ml pyrogen-free isotonic saline per animal between 13:00 and 15:00 to avoid diurnal variation. From a dose-response study, it is determined that 0.01 mg/kg endotoxin produces 85-95% lethality. Animals are observed each day for 6 days after injection.
C. PMB anti-endotoxin evaluations
PMB (native and conjugated forms) are evaluated for their ability to neutralize endotoxin by either pre-mixing with endotoxin for 60 minutes before i.p. injection or by coadministration of the substances as a single i.p. injection. While the concentration of the PMB (native and conjugated forms) are varied, the volume of each injection is kept constant at 0.5 ml per animal. The protection by the conjugated PMB was compared to the native PMB (in terms of mg protein/kg). Controls (endotoxin, galactosamine, and vehicle) are included as well in each study. Each group has between 10-17 animals. […]
The Therapeutic Index (TI) for PMB (native and conjugated) forms is determined by dividing the LD100 by the PD100. […]

The test system of another data set is normal test animal. The data set is described as follows: i.v. toxicity (LD0, LD100), lethality monitored over 7 days. From the text: LD0 is the highest non-toxic dose of PMB or its conjugate.
LD100 is the dose of PMB or its conjugated form which results in 90-100% lethality when injected into a normal test animal.
The "ultra pure" PMB-conjugate has a suprising reduction in toxicity as compared with native PMB. […] Comparisons in the table below are made between the highest non-toxic dose of PMB (native or conjugated)
^1 PMB (native or conjugate) given by i.v. injection and lethality
monitored over 7 days. LD0 is the highest nontoxic dose which can be
injected into a normal test animal.

The subject of the next data set is E.coli 0111B4 endotoxin. As to the kind of experiment: i.v. protection against LD90 endotoxin challenge (endotoxin-induced lethality test). To be noted: i.v. injection 1-3 minutes before an LD90 i.p. injection of E.coli 0111B4 endotoxin (0.5 μg/kg). On the procedure:
The resulting "ultra pure" PMB-conjugate is compared to native PMB in an endotoxin-induced leathality test as described in Example 3C supra.
At 1 mg/kg i.v., the ultra-pure PMB-conjugate gave >70% protection against a LD90 endotoxin challenge for at least 6 hours. […] Therefore the PMB-conjugate is suitable for prophylactic use.
^2 PMB (native or conjugate) given by i.v. injection 1-3 minutes
before an LD90 i.p. injection of E.coli 0111B4 endotoxin (0.5

As to polymyxin B [Native PMB], the LD100 was found to be 25 mg/kg with non-sensitized mice and 9.5 mg/kg in the data set with normal test animal (i.v.). In addition, the PD100 came to 2 mg/kg in the data set with endotoxin (0111B4) (PMB or conjugate allowed to react with the endotoxin for 60 min before i.p. injection); 2 mg/kg in the data set with endotoxin (0111B4) (i.p., dose giving >95% survival, pre-mixing or coadministration with endotoxin not stated for the row); 0.1 mg/kg in the data set on E.coli 0111B4 endotoxin. Besides, the “LD0 (highest non-toxic dose)” value in the data set with normal test animal (i.v. injection, lethality monitored over 7 days) came to 5 mg/kg.
